# ChEMBL document CHEMBL5727881, “Pyridone amides as modulators of sodium channels” (2020)
# Test: Electrophysiology Assay: Patch clamp electrophysiology was used to assess the efficacy and selectivity of sodium channel blockers in dorsal root ganglion neurons. Rat neurons were isolated from the dorsal root ganglions and maintained in culture for 2 to 10 days in the presence of NGF (50 ng/ml) (culture media consisted of NeurobasalA supplemented with B27, glutamine and antibiotics). Small diameter neurons (nociceptors, 8-12 μm in diameter) were visually identified and probed with fine tip glass electrodes connected to an amplifier (Axon Instruments). The “voltage clamp” mode was used to assess the compound's IC50 holding the cells at −60 mV. In addition, the “current clamp” mode was employed to test the efficacy of the compounds in blocking action potential generation in response to current injections. The results of these experiments contributed to the definition of the efficacy profile of the compounds.
row,Compound,IC50 [nM]
1,O=C(Nc1ccn(CCO)c(=O)c1)c1ccc(C(F)(F)F)cc1Oc1ccc(F)cc1,2800
2,COc1cc(Oc2cc(C(F)(F)F)ccc2C(=O)Nc2cc[nH]c(=O)c2)ccc1F,26
3,COc1cc(C)ccc1Oc1ccc(OC(F)(F)F)cc1C(=O)Nc1cc[nH]c(=O)c1,68
4,O=C(Nc1cc[nH]c(=O)c1)c1ccc(C(F)(F)F)cc1O[C@@H]1CC2CCC1C2 (stereo not given in full),765
5,COc1ccc(Oc2ccc(F)cc2C(=O)Nc2cc[nH]c(=O)c2)c(C)c1,330
